In brackets after ≈: the same amount, converted by molar mass.
Columns and labels:
Experiment in all cases: ≥ marks a high value that may be exact or a test limit, other limits are often not marked, values filed in µg/mL are converted to µM
[1] = test system: Staphylococcus aureus ATCC 43300
[2] = test system: Staphylococcus aureus ATCC 6538
[3] = test system: Escherichia coli ATCC 8739
[4] = test system: Bacillus subtilis ATCC 6633
[5] = test system: Pseudomonas aeruginosa ATCC 27853
[6] = test system: Pseudomonas aeruginosa
[7] = test system: Staphylococcus epidermidis
[8] = test system: Micrococcus luteus CCM 144
[9] = test system: Staphylococcus aureus
[10] = test system: Candida albicans F7-39/IDE99
[11] = test system: Bacillus subtilis 168
[12] = test system: Escherichia coli B
[13] = test system: Candida albicans ATCC 90028
[14] = test system: Salmonella enterica subsp. enterica serovar Pullorum C79-13
[15] = test system: Salmonella enterica subsp. enterica serovar Typhimurium C77-31
[16] = test system: Escherichia coli UB1005
[17] = test system: Salmonella enterica subsp. enterica serovar Typhimurium ATCC 14028
[18] = test system: Enterococcus faecalis ATCC 29212
[19] = test system: Staphylococcus epidermidis ATCC 12228
[20] = test system: Escherichia coli BW25113
[21] = test system: Staphylococcus aureus AS1.72
[22] = test system: Enterococcus faecalis CGMCC 1.595
[23] = test system: Lactococcus lactis AS1.1690
[24] = test system: Escherichia coli AS1.349
[25] = test system: Pseudomonas aeruginosa CGMCC 1.860
[26] = test system: Enterococcus faecium CGMCC 1.2334
[27] = test system: Bacillus cereus AS1.126

Compound	MIC [1] [µM]	MIC [5] [µM]	MIC [6] [µM]	MIC [8] [µM]	MIC [9] [µM]	MIC [10] [µM]	MIC [11] [µM]	MIC [12] [µM]	other results
CC[C@H](C)[C@H](NC(=O)CN)C(=O)N[C@@H](Cc1ccccc1)C(=O)N[C@@H](CO)C(=O)N[C@@H](CCCCN)C(=O)N[C@@H](Cc1ccccc1)C(=O)N[C@@H](C)C(=O)NCC(=O)N[C@@H](CCCCN)C(=O)NCC(=O)N[C@H](C(=O)N[C@@H](CCCCN)C(=O)N[C@@H](CC(N)=O)C(=O)N[C@@H](CC(C)C)C(=O)N[C@@H](CC(C)C)C(=O)N[C@H](C(=O)N[C@@H](CCCCN)C(=O)NCC(=O)N[C@H](C(=O)N[C@@H](CCCCN)C(=O)N[C@@H](CC(N)=O)C(=O)N[C@H](C(=O)NCC(=O)N[C@@H](CCCCN)C(=O)N[C@@H](CCC(=O)O)C(=O)N[C@H](C(=O)NCC(=O)N[C@@H](CCSC)C(=O)N[C@@H](CC(=O)O)C(=O)N[C@H](C(=O)N[C@H](C(=O)N[C@@H](CCCN=C(N)N)C(=O)N[C@H](C(=O)NCC(=O)N[C@H](C(=O)N[C@@H](CC(=O)O)C(=O)N[C@H](C(=O)N[C@@H](C)C(=O)NCC(=O)N[C@H]1CSSC[C@@H](C(=O)O)NC(=O)[C@H](CCC(=O)O)NC(=O)CNC(=O)[C@H](CCCCN)NC(=O)[C@H]([C@@H](C)CC)NC(=O)[C@H](CCCCN)NC1=O)[C@@H](C)CC)[C@@H](C)CC)[C@@H](C)O)[C@@H](C)CC)C(C)C)C(C)C)[C@@H](C)CC)C(C)C)C(C)C)[C@@H](C)CC [GIFSKFAGKGIKNLLVKGVKNIGKEVGMDVIRTGIDIAGCKIKGEC]	25 (≈ 120 µg/mL)								MIC [2]: 3.1 µM (≈ 14.9 µg/mL); MIC [3]: 6.3 µM (≈ 30.3 µg/mL); MIC [4]: 25 µM (≈ 120 µg/mL)
CC[C@H](C)[C@H](NC(=O)CN)C(=O)N[C@@H](CC(C)C)C(=O)N[C@@H](CO)C(=O)N[C@@H](CO)C(=O)N[C@@H](CC(C)C)C(=O)N[C@@H](Cc1c[nH]c2ccccc12)C(=O)N[C@@H](CCCCN)C(=O)N[C@@H](CCCCN)C(=O)N1CCC[C@H]1C(=O)N[C@@H](CCCCN)C(=O)N[C@@H](CCCCN)C(=O)N[C@H](C(=O)N[C@H](C(=O)N[C@@H](C)C(=O)N[C@@H](CCCCN)C(N)=O)[C@@H](C)CC)[C@@H](C)CC [GILSSLWKKPKKIIAK]	> 100	98 (≈ 177 µg/mL)	> 100	5.8 (≈ 10.5 µg/mL)	> 100	≥ 100	≥ 49	≥ 100	MIC [7]: ≥ 100 µM
CC[C@H](C)[C@H](NC(=O)CN)C(=O)N[C@@H](CC(C)C)C(=O)N[C@@H](CO)C(=O)N[C@H](C(=O)N[C@H](C(=O)N[C@@H](Cc1ccccc1)C(=O)N[C@@H](CCCCN)C(=O)N[C@@H](C)C(=O)NCC(=O)N[C@@H](CCCCN)C(=O)NCC(=O)N[C@H](C(=O)N[C@H](C(=O)N[C@H]1CSSC[C@@H](C(=O)O)NC(=O)[C@H](CC(C)C)NC(=O)CNC(=O)[C@H](CO)NC(=O)[C@H](CC(C)C)NC(=O)CNC1=O)C(C)C)[C@@H](C)CC)C(C)C)[C@@H](C)O [GILSTVFKAGKGIVCGLSGLC]	25 (≈ 50.5 µg/mL)								MIC [2]: 3.1 µM (≈ 6.27 µg/mL); MIC [3]: ≥ 50 µM; MIC [13]: ≥ 100 µM; MIC [4]: 12.5 µM (≈ 25.3 µg/mL)
CC[C@H](C)[C@H](NC(=O)CN)C(=O)N[C@@H](CCSC)C(=O)N[C@@H](CO)C(=O)N[C@@H](CO)C(=O)N[C@@H](CC(C)C)C(=O)N[C@@H](CCSC)C(=O)N[C@@H](CCCCN)C(=O)N[C@@H](CCCCN)C(=O)N[C@@H](CC(C)C)C(=O)N[C@@H](C)C(=O)N[C@@H](C)C(=O)N[C@H](C(=O)N[C@H](C(=O)N[C@@H](C)C(=O)N[C@@H](CCCCN)C(N)=O)[C@@H](C)CC)[C@@H](C)CC [GIMSSLMKKLAAIIAK]	7.2 (≈ 12.1 µg/mL)	8 (≈ 13.4 µg/mL)	17 (≈ 28.5 µg/mL)	3 (≈ 5.02 µg/mL)	10 (≈ 16.7 µg/mL)	8.4 (≈ 14.1 µg/mL)	7 (≈ 11.7 µg/mL)	3.6 (≈ 6.03 µg/mL)	MIC [7]: 5 µM (≈ 8.37 µg/mL)
CC[C@H](C)[C@H](NC(=O)[C@H](CC(C)C)NC(=O)[C@H](CCCCN)NC(=O)[C@@H](NC(=O)[C@@H](NC(=O)[C@H](CCCCN)NC(=O)[C@@H]1CCCN1C(=O)[C@H](CC(C)C)NC(=O)[C@@H](NC(=O)[C@H](CCCCN)NC(=O)[C@H](C)NC(=O)[C@H](CC(C)C)NC(=O)[C@H](CC(C)C)NC(=O)[C@H](CO)NC(=O)[C@H](C)NC(=O)[C@H](CCSC)NC(=O)CN)C(C)C)C(C)C)C(C)C)C(=O)N[C@@H](CCCCN)C(=O)O [GMASLLAKVLPKVVKLIK]			47.5 (≈ 90.7 µg/mL)	1.2 (≈ 2.29 µg/mL)	3.5 (≈ 6.68 µg/mL)	12.1 (≈ 23.1 µg/mL)	3.4 (≈ 6.49 µg/mL)	1.8 (≈ 3.44 µg/mL)	
CC[C@H](C)[C@H](NC(=O)[C@H](CCCCN)NC(=O)[C@H](CCCCN)NC(=O)[C@H](Cc1ccccc1)NC(=O)[C@H](CC(C)C)NC(=O)[C@H](CCCCN)NC(=O)[C@H](Cc1c[nH]c2ccccc12)NC(=O)[C@@H](N)CCCCN)C(=O)N[C@@H](CCCN=C(N)N)C(=O)N[C@@H](Cc1ccccc1)C(=O)NCC(=O)N[C@@H](CCCN=C(N)N)C(=O)N[C@@H](Cc1ccccc1)C(=O)N[C@@H](CC(C)C)C(=O)N[C@@H](CCCN=C(N)N)C(=O)N[C@@H](CCCCN)C(=O)N[C@H](C(=O)N[C@@H](CCCN=C(N)N)C(=O)N[C@@H](CCCN=C(N)N)C(=O)N[C@@H](Cc1ccccc1)C(=O)N[C@@H](CCCN=C(N)N)C(=O)N1CCC[C@H]1C(=O)N[C@@H](CCCCN)C(N)=O)[C@@H](C)CC [KWKLFKKIRFGRFLRKIRRFRPK]		4 (≈ 12.4 µg/mL)							MIC [14]: 8 µM (≈ 24.8 µg/mL); MIC [15]: 4 µM (≈ 12.4 µg/mL); MIC [16]: 2 µM (≈ 6.21 µg/mL); MIC [17]: 4 µM (≈ 12.4 µg/mL); MIC [18]: 4 µM (≈ 12.4 µg/mL); MIC [19]: 4 µM (≈ 12.4 µg/mL)
CC[C@H](C)[C@H](NC(=O)[C@H](C)NC(=O)CNC(=O)[C@H](CCCCN)NC(=O)[C@H](CC(N)=O)NC(=O)[C@@H](N)CC(C)C)C(=O)N[C@@H](CC(C)C)C(=O)N[C@@H](CCCCN)C(=O)N[C@@H](Cc1cnc[nH]1)C(=O)N[C@H](C(=O)N[C@H](C(=O)N[C@@H](CCCCN)C(N)=O)[C@@H](C)CC)[C@@H](C)CC [LNKGAILKHIIK]			> 100	≥ 100	> 100	≥ 100	≥ 65	≥ 100	
CC[C@H](C)[C@H](NC(=O)[C@@H]1CCCN1C(=O)[C@@H]1CCCN1C(=O)[C@H](CCCN=C(N)N)NC(=O)[C@H](CCCN=C(N)N)NC(=O)[C@H](Cc1c[nH]c2ccccc12)NC(=O)[C@@H]1CCCN1C(=O)[C@@H]1CCCN1C(=O)[C@H](CCCN=C(N)N)NC(=O)[C@H](Cc1ccccc1)NC(=O)[C@@H](N)CCCN=C(N)N)C(=O)N[C@@H](CCCN=C(N)N)C(=O)N1CCC[C@H]1C(=O)N1CCC[C@H]1C(=O)N[C@@H](Cc1ccccc1)C(=O)N[C@@H](Cc1ccc(O)cc1)C(=O)N1CCC[C@H]1C(=O)O [RFRPPWRRPPIRPPFYP]									MIC [20]: 8 µM (≈ 17.9 µg/mL)
CC(C)[C@H](N)C(=O)N[C@@H](Cc1c[nH]c2ccccc12)C(=O)N[C@@H](CCCN=C(N)N)C(=O)N[C@@H](Cc1cnc[nH]1)C(=O)N[C@@H](Cc1c[nH]c2ccccc12)C(=O)O [VWRHW]									MIC [21]: ≥ 100 µM; MIC [22]: ≥ 100 µM; MIC [23]: ≥ 100 µM; MIC [24]: ≥ 100 µM; MIC [25]: ≥ 100 µM; MIC [26]: ≥ 100 µM; MIC [27]: ≥ 100 µM
